Laboratory results as given in US10662259B2, “Glycogen-based water solubility enhancers” (AZIENDE CHIMICHE RIUNITE ANGELINI FRANCESCO A.C.R.A.F. …, priority 2013, dated 2020).

Key:
[1] = β-carotene alone; cited from earlier work
[2] = Solubility enhancement of astaxanthin in water solutions of the compounds (HPLC); conditions: water solution containing 5 mg/mL of compound, excess astaxanthin (1 mg/mL), room temperature, 24 hours, 0.45 μm filter
Experimental: The suspension was mixed using a laboratory shaker at room temperature for 24 hours. The concentration (mg/mL) of solubilized astaxanthin was determined by HPLC analysis. The sample was prepared for chromatographic analysis by filtering through a 0.45 μm MCE filter.
An X-Bridge™ Shield RP18 column (4.6×150 mm) was used. A suitable HPLC analytical method was developed for quantitating the amount of astaxanthin in solution.
The absorbance was monitored at 489 nm and the injection volume was 6 μL. In these chromatographic conditions, astaxanthin was eluted in about 4.0 minutes.
An appropriate dilution of each sample was made with dimethylsulfoxide, such that astaxanthin final concentration was within the linear portion of the standard curve, prior to injection onto the HPLC column.
The amount of astaxanthin in mg/mL was calculated by introducing the analyte peak area in the calibration curve fit-equation and multiplying the result by the dilution factor.

[3] = Solubility enhancement of β-carotene in water solutions of the compounds (HPLC); conditions: 5 mg/mL compound in water, excess β-carotene
Experimental: The suspensions were left under stirring for 24 hours. Solutions A to N were obtained.
The suspensions were left under stirring for 24 hours. Solutions O to R were obtained.
An excess amount of β-carotene (5 mg/mL) was added to 1 mL of each solution A to R. The suspension was mixed using a laboratory shaker at room temperature for 24 hours. The concentration (mg/mL) of solubilized β-carotene was determined by HPLC analysis. The sample was prepared for chromatographic analysis by filtering through a 0.45 μm MCE filter.
An X-Bridge™ Shield RP18 column (4.6×150 mm) was used. A suitable HPLC analytical method was developed for quantitating the amount of drug in solution.
An appropriate dilution of each sample was made with dimethylsulfoxide, such that β-carotene final concentration was within the linear portion of the standard curve, prior to injection onto the HPLC column.
The amount of β-carotene in mg/mL was calculated by introducing the analyte peak area in the calibration curve fit-equation and multiplying the result by the dilution factor.

Row | Compound | Water solubility [1] | Aqueous solubility of astaxanthin in the presence of the compound [2] [µg/mL] | Visual aspect of the solution with β-carotene [3]
1 | CC1=C(/C=C/C(C)=C/C=C/C(C)=C/C=C/C=C(C)/C=C/C=C(C)/C=C/C2=C(C)CCCC2(C)C)C(C)(C)CCC1 [β-carotene] | below 1 mg/L |  | 
2 | OC[C@H]1O[C@@H]2O[C@H]3[C@H](O)[C@@H](O)[C@@H](O[C@H]4[C@H](O)[C@@H](O)[C@@H](O[C@H]5[C@H](O)[C@@H](O)[C@@H](O[C@H]6[C@H](O)[C@@H](O)[C@@H](O[C@H]7[C@H](O)[C@@H](O)[C@@H](O[C@H]8[C@H](O)[C@@H](O)[C@@H](O[C@H]9[C@H](O)[C@@H](O)[C@@H](O[C@H]1[C@H](O)[C@H]2O)O[C@@H]9CO)O[C@@H]8CO)O[C@@H]7CO)O[C@@H]6CO)O[C@@H]5CO)O[C@@H]4CO)O[C@@H]3CO [Compound 14, γ-cyclodextrin (CAVAMAX W8)] |  | 1.2 | 
3 | HP-β-cyclodextrin (CAVASOL W7 HP) [Compound 16] |  | 0.7 | pale pink color
4 | OC[C@H]1O[C@@H]2O[C@H]3[C@H](O)[C@@H](O)[C@@H](O[C@H]4[C@H](O)[C@@H](O)[C@@H](O[C@H]5[C@H](O)[C@@H](O)[C@@H](O[C@H]6[C@H](O)[C@@H](O)[C@@H](O[C@H]7[C@H](O)[C@@H](O)[C@@H](O[C@H]8[C@H](O)[C@@H](O)[C@@H](O[C@H]1[C@H](O)[C@H]2O)O[C@@H]8CO)O[C@@H]7CO)O[C@@H]6CO)O[C@@H]5CO)O[C@@H]4CO)O[C@@H]3CO [Compound 15, β-cyclodextrin (CAVAMAX W7)] |  | 0.5 | 
